Data: patent US12486273B2 (Hoffmann-La Roche Inc., priority 2019, dated 2025)

How the values were obtained:
human TLR9 = human TLR9 (Homo sapiens (Human), UniProt Q9NR96); assay: HEK293-Blue-hTLR-9 cells assay; type: cell-based; settings: HEK293-Blue-hTLR9 cells, ODN2006 stimulation, 20 hrs, SEAP reporter; read-out: HEK/hTLR9 IC50
Excerpt: HEK293-Blue-hTLR-9 Cells Assay:
A stable HEK293-Blue-hTLR-9 cell line was purchased from InvivoGen (Cat. #: hkb-htlr9, San Diego, California, USA). These cells were originally designed for studying the stimulation of human TLR9 by monitoring the activation of NF-κB. A SEAP (secreted embryonic alkaline phosphatase) reporter gene was placed under the control of the IFN-β minimal promoter fused to five NF-κB and AP-1-binding sites. The SEAP was induced by activating NF-κB and AP-via stimulating HEK-Blue hTLR9 cells with TLR9 ligands. Therefore the reporter expression was declined by TLR9 antagonist under the stimulation of a ligand, such as ODN2006 (Cat. #: tlrl-2006-1, Invivogen, San Diego, California, USA), for incubation of 20 hrs. The cell culture supernatant SEAP reporter activity was determined using QUANTI-Blue™ kit (Cat. #: rep-qb1, Invivogen, San Diego, California, USA) at a wavelength of 640 nm, a detection medium that turns purple or blue in the presence of alkaline phosphatase.
(§1) HEK293-Blue-hTLR9 cells were incubated at a density of 250,000˜450,000 cells/mL in a volume of 170 μL in a 96-well plate in Dulbecco's Modified Eagle's medium (DMEM) containing 4.5 g/L glucose, 50 U/mL penicillin, […], […], 2 mM L-glutamine, 10% (v/v) heat-inactivated fetal bovine serum with addition of 20 μL test compound in a serial dilution in the presence of final DMSO at 1% and 10 μL of 20 μM ODN2006 in above DMEM, perform incubation under 37° C. in a CO2 incubator for 20 hrs. Then 20 μL of the supernatant from each well was incubated with 180 μL Quanti-blue substrate solution at 37° C. for 2 h and the absorbance was read at 620-655 nm using a spectrophotometer. The signaling pathway that TLR9 activation leads to downstream NF-κB activation has been widely accepted, and therefore similar reporter assay was modified for evaluating TLR9 antagonist.

[1] = Human microsomal stability assay; type: in vitro ADME; settings: human liver microsomes, 1 μM test compound, 37° C., pH 7.4
Description: Human Microsomal Stability Assay
Human liver microsomes (Cat. NO.: 452117, Corning, USA) were preincubated with test compound for 10 minutes at 37° C. in 100 mM potassium phosphate buffer, pH 7.4. The reactions were initiated by adding NADPH regenerating system. The final incubation mixtures contained 1 μM test compound, 0.5 mg/mL liver microsomal protein, 1 mM MgCl2, 1 mM NADP, 1 unit/mL isocitric dehydrogenase and 6 mM isocitric acid in 100 mM potassium phosphate buffer, pH 7.4. After incubation times of 0, 3, 6, 9, 15 and 30 minutes at 37° C., 300 μL of cold ACN (including internal standard) was added to 100 μL incubation mixture to terminate the reaction. Following precipitation and centrifugation, 100 μL supernatant will be taken out and added 300 μL water. The amount of compound remaining in the samples was determined by LC-MS/MS. Controls of no NADPH regenerating system at zero and 30 minutes were also prepared and analyzed. The results were categorized as: low (<7.0 mL/min/kg), medium (7.0-16.2 mL/min/kg) and high (16.2-23.2 mL/min/kg).

human TLR8 = human TLR8 (Homo sapiens (Human), UniProt Q9NR97); assay: HEK293-Blue-hTLR-8 cells assay; type: cell-based; settings: HEK293-Blue-hTLR8 cells, R848 stimulation, 20 hrs, SEAP reporter; read-out: HEK/hTLR8 IC50
Chain of human TLR8 (Q9NR97 27-1041): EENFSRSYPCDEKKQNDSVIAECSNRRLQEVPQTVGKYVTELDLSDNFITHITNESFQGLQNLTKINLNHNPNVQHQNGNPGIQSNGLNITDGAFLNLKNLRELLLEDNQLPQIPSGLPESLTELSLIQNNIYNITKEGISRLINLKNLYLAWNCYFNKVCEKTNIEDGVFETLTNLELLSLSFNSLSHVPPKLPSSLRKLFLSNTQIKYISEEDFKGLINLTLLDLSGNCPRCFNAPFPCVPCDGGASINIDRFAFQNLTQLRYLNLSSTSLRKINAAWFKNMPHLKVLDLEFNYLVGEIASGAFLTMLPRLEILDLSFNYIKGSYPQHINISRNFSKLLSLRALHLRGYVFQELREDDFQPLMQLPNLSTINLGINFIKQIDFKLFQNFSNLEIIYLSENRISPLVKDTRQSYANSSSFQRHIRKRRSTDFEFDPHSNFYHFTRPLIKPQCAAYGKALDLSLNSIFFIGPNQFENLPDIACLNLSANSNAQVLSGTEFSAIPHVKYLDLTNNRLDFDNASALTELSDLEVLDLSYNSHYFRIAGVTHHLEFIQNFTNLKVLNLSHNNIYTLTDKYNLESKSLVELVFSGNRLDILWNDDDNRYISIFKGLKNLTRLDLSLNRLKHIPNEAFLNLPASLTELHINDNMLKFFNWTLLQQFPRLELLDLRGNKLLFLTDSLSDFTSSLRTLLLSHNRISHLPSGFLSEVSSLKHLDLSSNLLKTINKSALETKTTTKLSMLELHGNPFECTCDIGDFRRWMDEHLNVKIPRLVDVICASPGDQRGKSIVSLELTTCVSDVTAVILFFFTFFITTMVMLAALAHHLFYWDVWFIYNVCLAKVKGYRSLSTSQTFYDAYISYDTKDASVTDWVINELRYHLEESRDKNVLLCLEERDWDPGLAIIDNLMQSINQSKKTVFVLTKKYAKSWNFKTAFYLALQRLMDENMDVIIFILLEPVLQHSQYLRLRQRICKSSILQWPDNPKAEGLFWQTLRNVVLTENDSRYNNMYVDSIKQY
Excerpt: HEK293-Blue-hTLR-8 Cells Assay:
(§2) A stable HEK293-Blue-hTLR-8 cell line was purchased from InvivoGen (Cat. #: hkb-htlr8, San Diego, California, USA). These cells were originally designed for studying the stimulation of human TLR8 by monitoring the activation of NF-κB. A SEAP (secreted embryonic alkaline phosphatase) reporter gene was placed under the control of the IFN-β minimal promoter fused to five NF-κB and AP-1-binding sites. The SEAP was induced by activating NF-κB and AP-1 via stimulating HEK-Blue hTLR8 cells with TLR8 ligands. Therefore the reporter expression was declined by TLR8 antagonist under the stimulation of a ligand, such as R848, for incubation of 20 hrs. The cell culture supernatant SEAP reporter activity was determined using QUANTI-Blue™ kit (Cat. #: rep-Qb1, Invivogen, San Diego, Ca, USA) at a wavelength of 640 nm, a detection medium that turns purple or blue in the presence of alkaline phosphatase.
HEK293-Blue-hTLR8 cells were incubated at a density of 250,000-450,000 cells/mL in a volume of 170 μL in a 96-well plate in Dulbecco's Modified Eagle's medium (DMEM) containing 4.5 g/L glucose, 50 U/mL penicillin, […], […], 2 mM L-glutamine, 10% (v/v) heat-inactivated fetal bovine serum with addition of 20 μL test compound in a serial dilution in the presence of final DMSO at 1% and 10 μL of 60 μM R848 in above DMEM, perform incubation under 37° C. in a CO2 incubator for 20 hrs. Then 20 μL of the supernatant from each well was incubated with 180 μL Quanti-blue substrate solution at 37° C. for […] and the absorbance was read at 620˜655 nm using a spectrophotometer. The signaling pathway that TLR8 activation leads to downstream NF-κB activation has been widely accepted, and therefore similar reporter assay was modified for evaluating TLR8 antagonist.

human TLR7 = human TLR7 (Homo sapiens (Human), UniProt Q9NYK1); assay: HEK293-Blue-hTLR-7 cells assay; type: cell-based; settings: HEK293-Blue-hTLR7 cells, R848 stimulation, 20 hrs, SEAP reporter; read-out: HEK/hTLR7 IC50
Chain of human TLR7 (Q9NYK1 27-1049): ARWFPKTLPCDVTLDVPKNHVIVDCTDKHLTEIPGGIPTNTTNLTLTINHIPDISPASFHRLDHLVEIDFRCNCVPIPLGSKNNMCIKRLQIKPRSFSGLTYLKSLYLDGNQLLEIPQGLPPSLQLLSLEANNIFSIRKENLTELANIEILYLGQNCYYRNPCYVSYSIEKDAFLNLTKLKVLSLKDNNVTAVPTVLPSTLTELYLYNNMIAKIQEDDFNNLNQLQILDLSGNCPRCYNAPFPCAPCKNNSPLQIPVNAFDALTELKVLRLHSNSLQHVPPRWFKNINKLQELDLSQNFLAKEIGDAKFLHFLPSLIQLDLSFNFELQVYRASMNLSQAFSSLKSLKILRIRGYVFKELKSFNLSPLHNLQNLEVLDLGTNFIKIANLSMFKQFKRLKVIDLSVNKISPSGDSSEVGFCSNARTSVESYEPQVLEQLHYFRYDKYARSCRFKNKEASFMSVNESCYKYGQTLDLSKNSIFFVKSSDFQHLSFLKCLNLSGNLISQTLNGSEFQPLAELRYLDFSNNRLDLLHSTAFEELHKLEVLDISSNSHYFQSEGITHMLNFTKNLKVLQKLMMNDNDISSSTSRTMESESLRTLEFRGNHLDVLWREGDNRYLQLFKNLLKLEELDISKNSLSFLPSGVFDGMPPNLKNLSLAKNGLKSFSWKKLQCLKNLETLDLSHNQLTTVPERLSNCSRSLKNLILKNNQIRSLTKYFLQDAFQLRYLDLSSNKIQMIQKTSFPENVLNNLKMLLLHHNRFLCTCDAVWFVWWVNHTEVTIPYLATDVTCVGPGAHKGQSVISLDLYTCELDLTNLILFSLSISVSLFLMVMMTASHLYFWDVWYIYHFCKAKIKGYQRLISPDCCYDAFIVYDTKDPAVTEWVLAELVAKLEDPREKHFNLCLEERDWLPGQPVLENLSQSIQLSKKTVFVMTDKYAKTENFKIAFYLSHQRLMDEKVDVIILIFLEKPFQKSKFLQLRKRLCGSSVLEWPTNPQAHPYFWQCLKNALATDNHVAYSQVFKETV
Excerpt: HEK293-BLUE-hTLR-7 CELLS ASSAY:
as §2, with “HEK293-Blue-hTLR-7” for “HEK293-Blue-hTLR-8”, “hkb-htlr7,” for “hkb-htlr8,”, “TLR7” for “TLR8”, “hTLR7” for “hTLR8”, “R848 (Resiquimod),” for “R848,”, “rep-qb1,” for “rep-Qb1,”
as §1, with “HEK293-Blue-hTLR7 cells” for “HEK293-Blue-hTLR9 cells”, “μM R848” for “μM ODN2006”, “2 hrs” for “2 h”, “that TLR7” for “that TLR9”, “evaluating TLR7” for “evaluating TLR9”

Chain of human TLR9 (Q9NR96 26-1032): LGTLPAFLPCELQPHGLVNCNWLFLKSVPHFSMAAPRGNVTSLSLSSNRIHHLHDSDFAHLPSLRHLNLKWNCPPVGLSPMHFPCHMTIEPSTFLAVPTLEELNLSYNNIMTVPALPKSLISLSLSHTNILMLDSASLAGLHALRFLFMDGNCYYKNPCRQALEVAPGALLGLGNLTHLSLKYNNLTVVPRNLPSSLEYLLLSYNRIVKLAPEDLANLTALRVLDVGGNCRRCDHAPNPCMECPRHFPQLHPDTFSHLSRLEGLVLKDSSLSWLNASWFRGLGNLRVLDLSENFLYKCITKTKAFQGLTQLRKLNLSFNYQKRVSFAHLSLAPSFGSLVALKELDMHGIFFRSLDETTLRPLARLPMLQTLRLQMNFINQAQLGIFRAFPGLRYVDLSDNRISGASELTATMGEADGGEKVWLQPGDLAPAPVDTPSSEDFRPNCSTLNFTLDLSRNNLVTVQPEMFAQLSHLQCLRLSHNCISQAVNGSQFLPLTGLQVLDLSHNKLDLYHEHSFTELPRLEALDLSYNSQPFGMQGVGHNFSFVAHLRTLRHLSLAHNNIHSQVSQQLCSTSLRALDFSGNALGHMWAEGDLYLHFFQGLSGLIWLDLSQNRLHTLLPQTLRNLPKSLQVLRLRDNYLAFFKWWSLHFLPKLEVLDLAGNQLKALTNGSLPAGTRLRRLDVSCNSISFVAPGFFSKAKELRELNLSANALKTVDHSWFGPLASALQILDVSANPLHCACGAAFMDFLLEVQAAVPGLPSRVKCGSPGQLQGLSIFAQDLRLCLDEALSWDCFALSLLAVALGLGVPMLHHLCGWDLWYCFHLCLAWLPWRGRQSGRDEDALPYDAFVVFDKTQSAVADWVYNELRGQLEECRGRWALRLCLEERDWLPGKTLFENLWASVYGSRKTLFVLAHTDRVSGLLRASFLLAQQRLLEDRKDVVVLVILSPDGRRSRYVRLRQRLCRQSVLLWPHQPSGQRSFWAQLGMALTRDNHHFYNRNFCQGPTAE

IC50 (human TLR9): 210 nM
CL (h) [1]: 8.6 mL/min/kg
IC50 (human TLR8): 8.9 nM
IC50 (human TLR7): 19.9 nM
Compound: [2H]c1ccc2c(N3C[C@@H]4C[C@H](N5CCC(C)(N)C5)CN4[C@H](C)C3)ccc(C#N)c2n1 (stereo partly drawn) [Example 19, 2-Deuterio-5-[(4R,7S,8aS)-7-(3-amino-3-methyl-pyrrolidin-1-yl)-4-methyl-3,4,6,7,8,8a-hexahydro-1H-pyrrolo[1,2-a]pyrazin-2-yl]quinoline-8-carbonitrile]
